Assay results reported in PMC7101335, “Aryl-alkyl-lysines: Novel agents for treatment of C. difficile infection” (Scientific Reports, 2020).
Values after ≈ are worked out from the molar mass of the structure shown. Like-named read-outs stand apart in the source and are kept apart here.

Columns and labels:
Clostridium difficile = test: Broth microdilution MIC against Clostridium difficile strains; type: cell-based; settings: Clostridioides difficile
Method: The broth microdilution assay was utilized following the Clinical and Laboratory Standards Institute (CLSI) guidelines with slight modifications. Briefly, C. difficile strains were grown on anaerobic blood agar plates (Becton Dickinson, BD) and suspended in brain heart infusion supplemented broth (Brain heart infusion medium, BD, supplemented with yeast extract, L-cysteine, Vitamin K1 and Hemin, Sigma) to achieve a bacterial concentration of ~10^5 CFU/ml. The bacterial suspension was seeded in 96-well plates containing drugs/compounds, in duplicate, at the required concentration. Plates were then incubated at 37 °C anaerobically for 48 hours. MICs reported are the lowest concentration of each agent that inhibited the visual growth of bacteria.

E. faecalis = test: Broth microdilution MIC against E. faecalis strains; type: cell-based; settings: Enterococcus faecalis, read-out: Minimum inhibitory concentration
E. faecium = test: Broth microdilution MIC against E. faecium strains; type: cell-based; settings: Enterococcus faecium, read-out: Minimum inhibitory concentration
[1] = test system: human ileocecal colorectal adenocarcinoma cell line (HRT-18); test: Cytotoxicity, MTS assay, HRT-18 cells; type: cell-based; settings: HRT-18 cells, 32 µg mL^−1, 2 hours, relative to DMSO
Method: Briefly, ~2 × 10^4 cells suspended in 100 µL of RPMI-1640 supplemented with 10% horse serum were seeded in a 96-well plate and incubated at 37 °C with 5% CO2. The cells were cultured for 24 hours until reaching ~90% confluency. The cells were further incubated with the aforementioned concentrations of the compounds for 2 hours. Afterwards, culture media were discarded and the cells in each well were washed with PBS and 100 µL of cell culture media were added prior to addition of the assay reagent MTS 3-(4,5-dimethylthiazol-2-yl)-5-(3-carboxymethoxyphenyl)-2-(4-sulfophenyl)-2H-tetrazolium) (Promega). The plates were incubated for 4 hours at 37 °C in a humidified 5% CO2 atmosphere. The absorbance was recorded at 490 nm and the corrected absorbance readings (actual absorbance readings for each treatment subtracted from background absorbance) were taken using a kinetic ELISA microplate reader (SpectraMax i3x, Molecular Devices, Sunnyvale, CA, USA). The quantity of viable cells after treatment with each compound was expressed as a percentage of the control, DMSO. Asterisk (*) denotes a significant difference from the DMSO-treated cells using 2-way analysis of variance (ANOVA) followed by Dunnett’s pairwise comparison.

[2] = Caco-2 bidirectional permeability assay; type: in vitro ADME, human; settings: human, Caco-2, two hours
Method: (§1) The Caco-2 bidirectional permeability assay was conducted as described in previous reports[29],[30],[41],[42]. The Caco-2 cell line is similar to human enterocytes and expresses P-glycoprotein and other relevant metabolic enzymes that affect absorption of orally-administered xenobiotics across the intestinal mucosa[34],[43],[44]. Caco-2 cells were grown in tissue culture flasks, trypsinized (by rinsing cells with phosphate-buffered saline and then treating with trypsin-EDTA for 5–10 minutes at 37 °C with 5% CO2 until cells detached), suspended in Dulbecco’s Modified Eagle Medium with 10% fetal bovine serum, 1% nonessential amino acids and penicillin-streptomycin, and then seeded onto wells of a Millipore 96-well Caco-2 plate. Cells were cultured at 37 °C with 5% CO2 until confluent (approximately three weeks) and media was changed at relevant time points. For Apical to Basolateral (A → B) permeability, the test article was added to the apical (A) compartment and the amount of permeation (Papp, as calculated below) to the basolateral (B) compartment was determined; for Basolateral to Apical (B → A) permeability, the test article was added to the B compartment and the amount of permeation to the A compartment was determined. […] Caco-2 cells were incubated with these buffers for two hours, and the receiver side buffer was removed for analysis by LC/MS/MS. To verify the tight junctions and integrity of Caco-2 cell monolayers, aliquots of the cell buffers were analyzed by fluorescence (Lucifer yellow transport ≤ 2%). Any deviations from control values are reported. Data are expressed as permeability (Papp) = (dQ/dt)/(C0A) where dQ/dt is the rate of permeation, C0 is the initial concentration of test agent, and A is the area of the monolayer.

Caco-2 monolayer = test: Caco-2 bidirectional permeability assay; type: in vitro ADME, human; settings: Caco-2 bidirectional
Method: as §1

[3] = test system: vancomycin-resistant and vancomycin-susceptible strains of Enterococcus; test: Broth microdilution MIC against Enterococcus strains (E. faecalis and E. faecium, summary in text); type: cell-based; settings: all E. faecalis and E. faecium strains tested, vancomycin-resistant and -sensitive
human erythrocytes = test system: human erythrocytes; parameters: method as in PMID 24479371; settings: concentration at which 50% of human erythrocytes are lysed; cited from earlier work

## CCCCCCCCCCN(Cc1cccc2ccccc12)C(=O)[C@@H](N)CCCCN [NCK-10]
Clostridium difficile; C. difficile Isolate 1 (NR-13427), read-out: Minimum inhibitory concentration
  MIC: 2 µg/mL (≈ 4.7 µM)
Clostridium difficile; C. difficile Isolate 2 (NR-13428), read-out: Minimum inhibitory concentration
  MIC: 1 µg/mL (≈ 2.35 µM)
Clostridium difficile; C. difficile Isolate 4 (NR-13430), read-out: Minimum inhibitory concentration
  MIC: 2 µg/mL (≈ 4.7 µM)
Clostridium difficile; C. difficile Isolate 6 (NR-13432), read-out: Minimum inhibitory concentration
  MIC: 1 µg/mL (≈ 2.35 µM)
Clostridium difficile; C. difficile Isolate 9 (NR-13435), read-out: Minimum inhibitory concentration
  MIC: 1 µg/mL (≈ 2.35 µM)
Clostridium difficile; C. difficile Isolate 10 (NR-13436), read-out: Minimum inhibitory concentration
  MIC: 1 µg/mL (≈ 2.35 µM)
Clostridium difficile; C. difficile P2 (NR-32883), read-out: Minimum inhibitory concentration
  MIC: 1 µg/mL (≈ 2.35 µM)
Clostridium difficile; C. difficile P4 (NR-32889), read-out: Minimum inhibitory concentration
  MIC: 2 µg/mL (≈ 4.7 µM)
Clostridium difficile; C. difficile P8 (NR-32888), read-out: Minimum inhibitory concentration
  MIC: 1 µg/mL (≈ 2.35 µM)
Clostridium difficile; C. difficile P13 (NR-32891), read-out: Minimum inhibitory concentration
  MIC: 2 µg/mL (≈ 4.7 µM)
Clostridium difficile; C. difficile P20 (NR-32896), read-out: Minimum inhibitory concentration
  MIC: 1 µg/mL (≈ 2.35 µM)
Clostridium difficile; C. difficile P21 (NR-32897), read-out: Minimum inhibitory concentration
  MIC: 1 µg/mL (≈ 2.35 µM)
Clostridium difficile; C. difficile P29 (NR-32903), read-out: Minimum inhibitory concentration
  MIC: 1 µg/mL (≈ 2.35 µM)
Clostridium difficile; C. difficile strains P8, P13 and Isolate 10
  MIC: 1 to 2 µg/mL (≈ 2.35 to 4.7 µM)
Clostridium difficile; across all tested strains of C. difficile
  MIC: 0.5 to 2 µg/mL (≈ 1.17 to 4.7 µM)
Clostridium difficile; most strains of C. difficile tested, read-out: MIC
  MIC: ≤ 1 µg/mL
Clostridium difficile; read-out: Minimum inhibitory concentration, C. difficile Isolate 5 (NR-13431)
  MIC: ≤ 0.5 µg/mL
Clostridium difficile; read-out: Minimum inhibitory concentration, C. difficile P15 (NR-32892)
  MIC: ≤ 0.5 µg/mL
Clostridium difficile; the rest of the C. difficile strains
  MIC: 1 µg/mL (≈ 2.35 µM)
E. faecalis; E. faecalis B3196
  MIC: 2 µg/mL (≈ 4.7 µM)
E. faecalis; E. faecalis B3286
  MIC: 2 µg/mL (≈ 4.7 µM)
E. faecalis; E. faecalis B3336
  MIC: 2 µg/mL (≈ 4.7 µM)
E. faecalis; E. faecalis SF24397
  MIC: 2 µg/mL (≈ 4.7 µM)
E. faecalis; E. faecalis SF28073 (vancomycin-resistant)
  MIC: 2 µg/mL (≈ 4.7 µM)
E. faecium; E. faecium E417 (vancomycin-resistant)
  MIC: < 1 µg/mL
E. faecium; E. faecium E1071
  MIC: 2 µg/mL (≈ 4.7 µM)
E. faecium; E. faecium UAA714
  MIC: 2 µg/mL (≈ 4.7 µM)
[1]
  cells survived: 60%
[2]; apical (pH 6.5) to basolateral (pH 7.4)
  Papp A→B at 2 h: < 0.01 ×10⁻⁶ cm/s
[2]; basolateral to apical
  Papp B→A at 2 h: 3.26 ×10⁻⁶ cm/s
Caco-2 monolayer
  Notes (permeability class): Limited permeability
[3]
  MIC: ≤ 2 µg/mL
Human erythrocytes
  hemolytic concentration 50 (HC50): 95 µg/mL
